Data reported in patent US12162876B2, “Indazole kinase inhibitor and use thereof” (Tarapeutics Science Inc., priority 2018, dated 2024).

Legend:
Format in all cases: cell-based
[1] = system: BaF3; assay: Cell proliferation (CCK-8, 72 h), parental BaF3; settings: Mus musculus, parental BaF3 cells
From the text: (§1) In this example, human gastrointestinal stromal tumor cell line GIST-T1 (expressing wild-type C-KIT gene) (purchased from Cosmo Bio Co., Ltd. (Japan)), human gastrointestinal stromal tumor cell line GIST-T1-T670I (expressing C-KIT-T670I mutant gene) (constructed by our laboratory with CRISPR technology), mouse […] BaF3 (purchased from ATCC) were used. In addition, in this Example, mouse Tel-cKit-BaF3 (stably expressing C-KIT wild-type kinase), mouse Tel-cKit/T670I-BaF3 (stably expressing cKIT T670I mutant kinase), mouse Tel-PDGFRα-BaF3 (stably expressing PDGFRα kinase), mouse Tel-PDGFRβ-BaF3 (stably expressing PDGFRβ kinase), mouse Tel-VEGFR2-BaF3 (stably expressing VEGFR2 kinase), mouse Tel-FLT3-BaF3 (stably expressing FLT3 kinase) were also used. The above cell lines were all constructed by our laboratory. The construction method was as follows: the human C-KIT, C-KIT T670I, PDGFRα, PDGFRβ, VEGFR2, FLT3 kinase region sequences were amplified by PCR respectively and inserted into MSCV-Puro vector (purchased from Clontech) with N-terminal TEL fragment and/or NPM fragment and/or TPR fragment respectively, which was stably transferred into mouse BaF3 cells by retroviral method, and IL-3 growth factor was removed, and finally the cell lines in which protein was transferred depending on C-KIT, C-KIT/T670I, PDGFRα, PDGFRβ, VEGFR2, FLT3 were obtained. The GIST-T1-T670I (expressing C-KIT-T670I mutant gene) cell line was constructed by our laboratory. The construction method was as follows: the sgRNA targeting near the T670 site of the KIT gene was designed by the CRISPR design tool of the Zhang Feng Laboratory of the Massachusetts Institute of Technology (URL: crispr.mit.edu) and cloned into pSpCas9(BB)-2A-Puro vector (Addgene, USA); the obtained vector and a single-stranded oligonucleotide with T670I mutation near the T670 site were co-transfected into the cells, and after antibiotic selection, they were diluted and cultured in a single cell in a 96-well plate; the T670 site of the cells was sequenced and verified by the Sanger sequencing method.

[2] = system: TEL-cKIT-BaF3; assay: Cell proliferation (CCK-8, 72 h), TEL-cKIT-BaF3; settings: Mus musculus, BaF3 expressing wild-type C-KIT kinase
From the text: as §1

[3] = system: TEL-cKIT/T670I-BaF3; assay: Cell proliferation (CCK-8, 72 h), TEL-cKIT/T670I-BaF3; settings: Mus musculus; BaF3 expressing cKIT T670I mutant kinase, 72 h, CCK-8; read-out: GI50 TEL-cKIT/T670I-BaF3
From the text: as §1

[4] = system: TEL-VEGFR2-BaF3; assay: Cell proliferation (CCK-8, 72 h), TEL-VEGFR2-BaF3; settings: Mus musculus, BaF3 expressing VEGFR2 kinase
From the text: as §1

[5] = system: TEL-PDGFRα-BaF3; assay: Cell proliferation (CCK-8, 72 h), TEL-PDGFRα-BaF3; settings: Mus musculus, BaF3 expressing PDGFRα kinase
From the text: as §1

[6] = system: TEL-FLT3-BaF3; assay: Cell proliferation (CCK-8, 72 h), TEL-FLT3-BaF3; settings: Mus musculus, BaF3 expressing FLT3 kinase
From the text: as §1

[7] = system: TEL-PDGFRβ-BaF3; assay: Cell proliferation (CCK-8, 72 h), TEL-PDGFRβ-BaF3; settings: Mus musculus, BaF3 expressing PDGFRβ kinase
From the text: as §1

[8] = system: GIST-T1; assay: Cell proliferation (CCK-8, 72 h), GIST-T1; settings: Homo sapiens, GISTT1, GIST-T1 (wild-type C-KIT gene)
From the text: as §1

[9] = system: GIST-T1-T670I; assay: Cell proliferation (CCK-8, 72 h), GIST-T1-T670I; settings: Homo sapiens, GIST-T1-T670I (C-KIT-T670I mutant, Imatinib-resistant)
From the text: as §1

Row | Structure (SMILES) | GI50 [1] [nM] | GI50 [2] [nM] | GI50 [3] [nM] | GI50 [4] [nM] | GI50 [5] [nM] | GI50 [6] [nM] | GI50 [7] [nM] | GI50 [8] [nM] | GI50 [9] [nM]
1 | Cc1nc(NC(=O)Cc2cccc(Cl)c2)sc1-c1ccc2c(/C=C/c3ccccn3)n[nH]c2c1 [Compound 10, (E)-2-(3-chlorophenyl)-N-(4-methyl-5-(3-(2-(pyridin-2-yl)vinyl)-1H-indazol-6-yl)thiazol-2-yl)acetamide] | 4100 | 70 | 37 | 9.8 | 1.3 | 2 |  |  | 
2 | Cc1nc(NC(=O)CC2CCNCC2)sc1-c1ccc2c(/C=C/c3ccccn3)n[nH]c2c1 [Compound 11, (E)-N-(4-methyl-5-(3-(2-(pyridin-2-yl)vinyl)-1H-indazol-6-yl)thiazol-2-yl)-2-(piperidin-4-yl)acetamide] | 980 | 480 | 38 | 350 | 1.3 | 48 | 3.9 |  | 
3 | Cc1nc(NC(=O)C2CCNCC2)sc1-c1ccc2c(/C=C/c3ccccn3)n[nH]c2c1 [Compound 14, (E)-N-(4-methyl-5-(3-(2-(pyridin-2-yl)vinyl)-1H-indazol-6-yl)thiazol-2-yl) piperidin-4-carboxamide] | 3100 | 137 | 85 | 42 | 7.4 | 1.6 | 18 |  | 
4 | Cc1nc(NC(=O)CN2CCN(C)CC2)sc1-c1ccc2c(-c3cccc(F)c3)n[nH]c2c1 [Compound 26, N-(5-(3-(3-fluorophenyl)-1H-indazol-6-yl)-4-methylthiazol-2-yl)-2-(4-methylpiperazin-1-yl)acetamide] | 1040 | 1020 | 83 |  |  | 26 |  |  | 
5 | Cc1nc(NC(=O)CC2CCN(C)CC2)sc1-c1ccc2c(/C=C/c3ccccn3)n[nH]c2c1 [Compound 27, (E)-N-(4-methyl-5-(3-(2-(pyridin-2-yl)vinyl)-1H-indazol-6-yl)thiazol-2-yl)-2-(1-methylpiperidin-4-yl)acetamide] | 605 | 94 | 1 |  |  | < 1 |  |  | 
6 | Cc1nc(NC(=O)Cc2cccc(C(F)(F)F)c2)sc1-c1ccc2c(-c3cccnc3)n[nH]c2c1 [Compound 28, N-(4-methyl-5-(3-(pyridin-3-yl)-1H-indazol-6-yl)thiazol-2-yl)-2-(3-(trifluoromethyl)phenyl)acetamide] | 2490 | 48 | 7 |  |  | 0.1 |  |  | 
7 | Cc1nc(NC(=O)Nc2cccc(C(F)(F)F)c2)sc1-c1ccc2c(/C=C/c3ccccn3)n[nH]c2c1 [Compound 29, (E)-1-(4-methyl-5-(3-(2-(pyridin-2-yl)vinyl)-1H-indazol-6-yl)thiazol-2-yl)-3-(3-(trifluoromethyl)phenyl)urea] | 105 | 25 | 38 | 4 | < 1 | 2 | < 1 |  | 
8 | CC(=O)Nc1nc(C)c(-c2ccc3c(/C=C/c4ccccn4)n[nH]c3c2)s1 [Compound 30, (E)-N-(4-methyl-5-(3-(2-(pyridin-2-yl)vinyl)-1H-indazol-6-yl)thiazol-2-yl) acetamide] | 1460 | 47 | 8 | 12 | 1 | 0.3 | 1 |  | 
9 | Cc1ccc(NC(=O)c2ccc(CN3CCN(C)CC3)cc2)cc1Nc1nccc(-c2cccnc2)n1 [Imaitnib, Imatinib, reference compound] |  |  |  |  |  |  |  | 10 | > 10000
